Test results from patent publication US5955607A, “Sulfonamide-substituted chromans, processes for their preparation, their use as a medicament or diagnostic, and pharmaceutical preparations comprising them” (priority 1997, dated 1999).
Structures can show the parent of a compound that is named as a salt.

Molecular target: T1, human IsK protein (UniProt P15382+P70057)
T1 construct: channel formed with endogenous oocyte KCNQ1; two-microelectrode voltage clamp
Assay: cell-based
Conditions: human IsK expressed in Xenopus oocytes, -10 mV voltage jumps lasting 15 s, room temperature, pH 7.5; Hill equation

T1 sequence (P70057 whole entry): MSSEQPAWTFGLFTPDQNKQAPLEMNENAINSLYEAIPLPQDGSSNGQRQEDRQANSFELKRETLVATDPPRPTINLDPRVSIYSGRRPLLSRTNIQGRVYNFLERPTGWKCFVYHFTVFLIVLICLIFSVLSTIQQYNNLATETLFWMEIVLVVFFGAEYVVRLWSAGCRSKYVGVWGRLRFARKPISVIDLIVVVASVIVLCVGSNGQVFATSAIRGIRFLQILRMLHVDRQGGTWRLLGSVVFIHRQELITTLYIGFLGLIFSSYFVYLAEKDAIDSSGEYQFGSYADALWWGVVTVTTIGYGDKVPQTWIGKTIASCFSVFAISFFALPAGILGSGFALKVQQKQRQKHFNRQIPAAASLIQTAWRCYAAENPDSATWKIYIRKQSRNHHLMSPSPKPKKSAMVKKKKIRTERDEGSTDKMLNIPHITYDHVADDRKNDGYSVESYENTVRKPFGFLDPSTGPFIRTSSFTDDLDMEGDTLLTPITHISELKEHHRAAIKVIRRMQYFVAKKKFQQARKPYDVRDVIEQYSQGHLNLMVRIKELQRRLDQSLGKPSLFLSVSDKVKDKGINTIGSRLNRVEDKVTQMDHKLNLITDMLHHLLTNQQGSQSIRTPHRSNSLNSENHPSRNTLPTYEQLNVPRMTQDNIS

Question: Which IC50 does the source give for `CC1(C)Oc2ccc(Cl)cc2[C@@H](N(CC(=O)NCCc2ccccc2)S(C)(=O)=O)[C@@H]1O` (relative stereo) [Example 58, 2-[(6-Chloro-3-hydroxy-2,2-dimethylchroman-4-yl)methanesulfonylamino]-N-phenethylacetamide] here?
Answer: 500 nM

Question: With `COCCOCCN(C1CC(C)(C)Oc2ccc(OCc3ccccc3)cc21)S(C)(=O)=O` (stereo not shown) [Example 38, N-(6-Benzyloxy-2,2-dimethylchroman-4-yl)-N-[2-(2-methoxyethoxy)ethyl]methanesulfonamide] as the compound, how does the IC50 read?
Answer: 1420 nM

Question: Which IC50 does the source give for `Cc1ccc2c(c1)C(N(CCCCC(=O)OCCN(C)Cc1ccccc1)S(C)(=O)=O)CC(C)(C)O2` (stereo not shown) [Example 10, 2-(Benzylmethylamino)ethyl 5-[methanesulfonyl-(2,2,6-trimethylchroman-4-yl)amino]pentanoate] here?
Answer: 790 nM

Question: For `CCS(=O)(=O)N(CC(=O)Nc1cnccn1)C1CC(C)(C)Oc2ccc(F)cc21` (stereo not shown) [Example 25, 2-[Ethanesulfonyl-(6-fluoro-2,2-dimethylchroman-4-yl)amino]-N-pyrazin-2-ylacetamide], which IC50 is on record?
Answer: 450 nM

Question: Which IC50 does the source give for `CCS(=O)(=O)N(CC(=O)OCCN(C)Cc1ccccc1)C1CC(C)(C)Oc2ccc(F)cc21` (stereo not shown) [Example 49, 2-(Benzylmethylamino)ethyl [ethanesulfonyl-(6-fluoro-2,2-dimethylchroman-4-yl)amino]acetate] here?
Answer: 83 nM

Question: Which IC50 does the source give for `CCOC(=O)CN(C)C(=O)CN(C1CC(C)(C)Oc2ccc(OCc3ccccc3)cc21)S(C)(=O)=O` (stereo not shown) [Example 32, Ethyl ({2-[(6-benzyloxy-2,2-dimethylchroman-4-yl)methanesulfonylamino]acetyl}methylamino)acetate] here?
Answer: 250 nM

Question: Which IC50 does the source give for `CCCCOc1ccc2c(c1)C(N(CCCOC(=O)NCCN1CCOCC1)S(C)(=O)=O)CC(C)(C)O2` (stereo not shown) [Example 47, 3-[(6-Butoxy-2,2-dimethylchroman-4-yl)methanesulfonylamino]propyl (^2-morpholin-4-yl-ethyl)carbamate] here?
Answer: 750 nM

Question: With `CCCCOc1ccc2c(c1)C(N(CCOCCOC)S(C)(=O)=O)CC(C)(C)O2` (stereo not shown) [Example 42, N-(6-Butoxy-2,2-dimethylchroman-4-yl)-N-[2-(2-methoxyethoxy)ethyl]methanesulfonamide] as the compound, how does the IC50 read?
Answer: 340 nM

Question: Which IC50 does the source give for `CCOC(=O)CN(C)C(=O)CCCN(C1CC(C)(C)Oc2ccc(OCc3ccccc3)cc21)S(C)(=O)=O` (stereo not shown) [Example 31, Ethyl ({4-[(6-benzyloxy-2,2-dimethylchroman-4-yl)methanesulfonylamino]butyryl}methylamino)acetate] here?
Answer: 280 nM

Question: With `CCS(=O)(=O)N(CC(=O)Nc1ccncc1)C1CC(C)(C)Oc2ccc(F)cc21` (stereo not shown) [Example 22, 2-[Ethanesulfonyl-(6-fluoro-2,2-dimethylchroman-4-yl)amino]-N-pyridin-4-ylacetamide] as the compound, how does the IC50 read?
Answer: 670 nM

Question: For `CCS(=O)(=O)N(CC(=O)Nc1ncccn1)C1CC(C)(C)Oc2ccc(F)cc21` (stereo not shown) [Example 24, 2-[Ethanesulfonyl-(6-fluoro-2,2-dimethylchroman-4-yl)amino]-N-pyrimidin-2-ylacetamide], which IC50 is on record?
Answer: 1000 nM

Question: Which IC50 does the source give for `CCCCOc1ccc2c(c1)C(N(CCCOCCO)S(C)(=O)=O)CC(C)(C)O2` (stereo not shown) [Example 45, N-(6-Butoxy-2,2-dimethylchroman-4-yl)-N-[3-(2-hydroxyethoxy)propyl]methanesulfonamide] here?
Answer: 450 nM

Question: Which IC50 does the source give for `CCS(=O)(=O)N(CC(=O)Nc1nc2ccccc2n1C)C1CC(C)(C)Oc2ccc(F)cc21` (stereo not shown) [Example 27, 2-[Ethanesulfonyl-(6-fluoro-2,2-dimethylchroman-4-yl)amino]-N-(1-methyl-1H-benzoimidazol-2-yl)acetamide] here?
Answer: 2100 nM

Question: With `CCS(=O)(=O)N(CC(=O)Nc1ccccn1)C1CC(C)(C)Oc2ccc(F)cc21` (stereo not shown) [Example 14, 2-[(6-Fluoro-2,2-dimethylchroman-4-yl)ethanesulfonylamino]-N-pyridin-2-ylacetamide] as the compound, how does the IC50 read?
Answer: 180 nM

Question: With `CN(CCc1ccccn1)C(=O)CN(C1CC(C)(C)Oc2ccc(OCc3ccccc3)cc21)S(C)(=O)=O` (stereo not shown) [Example 40, 2-[(6-Benzyloxy-2,2-dimethylchroman-4-yl)methanesulfonylamino]-N-methyl-N-(2-pyridin-2-yl-ethyl)acetamide hydrochloride] as the compound, how does the IC50 read?
Answer: 350 nM

Question: For `CCS(=O)(=O)N(CC(=O)Nc1cccnc1)C1CC(C)(C)Oc2ccc(F)cc21` (stereo not shown) [Example 23, 2-[Ethanesulfonyl-(6-fluoro-2,2-dimethylchroman-4-yl)-amino]N-pyridin-3-ylacetamide], which IC50 is on record?
Answer: 550 nM

Question: Which IC50 does the source give for `CCS(=O)(=O)N(CC(=O)NCCc1ccccc1)C1CC(C)(C)Oc2ccc(F)cc21` (stereo not shown) [Example 21, 2-[Ethanesulfonyl-(6-fluoro-2,2-dimethylchroman-4-yl)amino]-N-phenethylacetamide] here?
Answer: 46 nM

Question: For `CCCCNC(=O)CCCN(C1CC(C)(C)Oc2ccc(OCc3ccccc3)cc21)S(C)(=O)=O` (stereo not shown) [Example 28, 4-[(6-Benzyloxy-2,2-dimethylchroman-4-yl)methanesulfonylamino]-N-butylbutyramide], which IC50 is on record?
Answer: 470 nM

Question: For `CC1(C)CC(N(CC(=O)NCCc2ccccn2)S(C)(=O)=O)c2cc(OCc3ccccc3)ccc2O1` (stereo not shown) [Example 17, 2-[(6-Benzyloxy-2,2-dimethylchroman-4-yl)methanesulfonylamino]-N-(2-pyridin-2-yl-ethyl)acetamide], which IC50 is on record?
Answer: < 1000 nM

Question: With `CCCCOc1ccc2c(c1)C(N(CCOCC(=O)O)S(C)(=O)=O)CC(C)(C)O2` (stereo not shown) [Example 43, {2-[(6-Butoxy-2,2-dimethylchroman-4-yl)methanesulfonylamino]ethoxy}acetic acid] as the compound, how does the IC50 read?
Answer: 7800 nM

Question: Which IC50 does the source give for `CC1(C)CC(N(CCCCOCC(=O)O)S(C)(=O)=O)c2cc(OCc3ccccc3)ccc2O1` (stereo not shown) [Example 34, {4-[(6-Benzyloxy-2,2-dimethylchroman-4-yl)methanesulfonylamino]butoxy}acetic acid] here?
Answer: ~700 nM

Question: With `CCS(=O)(=O)N(CC(=O)NCCc1ccccn1)C1CC(C)(C)Oc2ccc(F)cc21` (stereo not shown) [Example 9, 2-[Ethylsulfonyl-(6-fluoro-2,2-dimethylchroman-4-yl)amino]-N-(2-pyridin-2-ylethyl)acetamide] as the compound, how does the IC50 read?
Answer: 1600 nM

Question: Which IC50 does the source give for `CCS(=O)(=O)N(CC(=O)Nc1nc2ccccc2[nH]1)C1CC(C)(C)Oc2ccc(F)cc21` (stereo not shown) [Example 61, N-(1H-Benzoimidazol-2-yl)-2-[ethanesulfonyl-(6-fluoro-2,2-dimethyl-chroman-4-yl)-amino]-acetamide] here?
Answer: < 1000 nM

Question: For `CN(CCc1ccccc1)C(=O)CN(C1CC(C)(C)Oc2ccc(OCc3ccccc3)cc21)S(C)(=O)=O` (stereo not shown) [Example 39, 2-[(6-Benzyloxy-2,2-dimethylchroman-4-yl)methanesulfonylamino]-N-methyl-N-phenethylacetamide], which IC50 is on record?
Answer: 310 nM

Question: For `CCS(=O)(=O)N(CC(=O)Nc1nc[nH]n1)C1CC(C)(C)Oc2ccc(F)cc21` (stereo not shown) [Example 54, 2-[Ethanesulfonyl-(6-fluoro-2,2-dimethylchroman-4-yl)amino]-N-(1H-[1,2,4]triazol-3-yl)acetamide], which IC50 is on record?
Answer: 830 nM

Question: With `COCCOCCCCN(C1CC(C)(C)Oc2ccc(OCc3ccccc3)cc21)S(C)(=O)=O` (stereo not shown) [Example 29, N-(6-Benzyloxy-2,2-dimethylchroman-4-yl)-N-[4-(2-methoxyethoxy)butyl]methanesulfonamide] as the compound, how does the IC50 read?
Answer: < 1000 nM

Question: With `CCS(=O)(=O)N(CC(=O)NCCN(C)Cc1ccccc1)C1CC(C)(C)Oc2ccc(F)cc21` (stereo not shown) [Example 62, N-[2-(Benzyl-methyl-amino)-ethyl]-2-[ethanesulfonyl-(6-fluoro-2,2-dimethyl-chroman-4-yl)-amino]-acetamide] as the compound, how does the IC50 read?
Answer: < 1000 nM

Question: For `CCCCOc1ccc2c(c1)C(N(CC(=O)NC(=N)N)S(C)(=O)=O)CC(C)(C)O2` (stereo not shown) [Example 56, N-(6-Butoxy-2,2-dimethylchroman-4-yl)-N-(2-guanidino-2-oxoethyl)methanesulfonamide], which IC50 is on record?
Answer: 3400 nM

Question: For `CCOCCOCCOC(=O)CN(C1CC(CC)(CC)Oc2ccc(C)cc21)S(=O)(=O)CC` (stereo not shown) [Example 4, 2-(2-Ethoxyethoxy)ethyl [(2,2-diethyl-6-methylchroman-4-yl)-ethylsulfonylamino]acetate], which IC50 is on record?
Answer: 1000 nM

Test system: IKr
Assay: not given
Conditions: known class III antiarrhythmics; cited from earlier work

Question: With `CC(C)NC[C@@H](O)c1ccc(NS(C)(=O)=O)cc1` [d-sotalol] as the compound, how does the “block of IKr” value read?
Answer: mainly or exclusively block IKr

Test system: K^+ (ATP) channel
Assay: not given
Conditions: cromakalim (formula A) and analogous acylamino compounds; cited from earlier work

Question: Which “action on ATP-sensitive K^+ channels” value does the source give for `CC1(C)Oc2ccc(C#N)cc2[C@@H](N2CCCC2=O)[C@@H]1O` (relative stereo) [cromakalim] here?
Answer: act as openers of ATP-sensitive K^+ channels
